Laboratory results as given in US20260297085A1, “1 H-PYRROLO[2,3-B]PYRIDIN-4-YL]-2-OXOPYRROLIDINE-3-CARBONITRILE DERIVATIVES AS TYROSINE KINASE 2 (TYK2) INHIBITORS FOR THE TREATMENT OF INFLAMMATORY DISEASES” (BIOGEN MA INC., priority 2023, published 2026).

Assays:
[1] = molecular target: Tyk2 kinase activity on STAT4 in NK92 cells (Homo sapiens, UniProt P29597); assay: pSTAT4 cell assay (MSD; NK92 cells, 30 ng/mL IL2 stimulation); format: cell-based; conditions: 30 ng/mL IL2, 15 minutes
How it was run: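 IC50 values come from 4-parameter logistic fits of normalized percent activity. Phospho-STAT was read by MSD (anti-STAT4 antibodies) in NK92 lysates after a 15 min stimulation with 30 ng/mL IL2. The serum-starved cells had been given compound for 1 h (10 points, four-fold, top 10 μM).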

[2] = molecular target: T1, human JAK3 kinase domain (JH1) (Homo sapiens, UniProt P52333); assay: JH1 biochemical assay for JAK3 (ADP-Glo kinase assay, recombinant JH1 catalytic domain, JAK3-974 peptide, 4 μM ATP); conditions: JH1 kinase domain, ADP-Glo
T1 construct: recombinantly generated catalytic kinase (also known as JH1) domain of human JAK1, JAK2, JAK3 and TYK2
How it was run: (§1)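 Compounds were titrated in 11 points of 3-fold dilution starting at 10 μM or 1 μM. Enzyme (JAK1 4 nM, JAK2 0.2 nM, JAK3 0.3 nM, TYK2 2 nM) and 50 μM peptide reacted for 100 minutes, followed by ADP-to-luminescence detection; IC50 by 4-parameter fit.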

[3] = molecular target: T2, human JAK2 kinase domain (JH1) (Homo sapiens, UniProt O60674); assay: JH1 biochemical assay for JAK2 (ADP-Glo kinase assay, recombinant JH1 catalytic domain, JAK3-974 peptide, 15 μM ATP); conditions: JH1 kinase domain, ADP-Glo
T2 construct: recombinantly generated catalytic kinase (also known as JH1) domain of human JAK1, JAK2, JAK3 and TYK2
How it was run: as §1

[4] = molecular target: T3, human JAK1 kinase domain (JH1) (Homo sapiens, UniProt P23458); assay: JH1 biochemical assay for JAK1 (ADP-Glo kinase assay, recombinant JH1 catalytic domain, JAK3-342 peptide, 35 μM ATP); conditions: JH1 kinase domain, ADP-Glo
T3 construct: recombinantly generated catalytic kinase (also known as JH1) domain of human JAK1, JAK2, JAK3 and TYK2
How it was run: as §1

[5] = molecular target: JAK1 kinase activity on STAT3 in TF1 cells (Homo sapiens, UniProt P23458); assay: pSTAT3 cell assay (MSD; TF1 cells, 30 ng/mL IL-6 stimulation); format: cell-based; conditions: 30 ng/mL IL-6, 15 minutes
How it was run: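 IC50 values reflect 4-parameter logistic fits of normalized pSTAT3 signal, measured by MSD in lysed TF1 cells. Cells were serum-starved and treated with compound for 1 h (top concentration 10 μM) before a 15 min IL-6 challenge.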

[6] = molecular target: T4, human TYK2 kinase domain (JH1) (Homo sapiens, UniProt P29597); assay: JH1 biochemical assay for TYK2 (ADP-Glo kinase assay, recombinant JH1 catalytic domain, JAK3-974 peptide, 10 μM ATP); conditions: JH1 kinase domain, ADP-Glo
T4 construct: recombinantly generated catalytic kinase (also known as JH1) domain of human JAK1, JAK2, JAK3 and TYK2
T4 sequence (P29597 897-1176 limits assumed): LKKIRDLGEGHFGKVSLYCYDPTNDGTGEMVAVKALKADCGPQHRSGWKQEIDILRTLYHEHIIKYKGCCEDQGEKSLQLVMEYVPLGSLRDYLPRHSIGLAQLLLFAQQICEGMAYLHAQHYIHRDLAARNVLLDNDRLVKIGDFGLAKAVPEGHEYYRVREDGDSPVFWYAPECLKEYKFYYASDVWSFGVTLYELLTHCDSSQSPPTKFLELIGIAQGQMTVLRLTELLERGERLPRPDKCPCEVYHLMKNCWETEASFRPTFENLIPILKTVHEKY
How it was run: as §1

[7] = molecular target: JAK2 kinase activity on STAT5 in TF1 cells (Homo sapiens, UniProt O60674); assay: pSTAT5 cell assay (MSD; TF1 cells, 30 ng/mL IL-3 stimulation); format: cell-based; conditions: 30 ng/mL IL-3, 15 minutes
How it was run: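 IC50 from a 4-parameter logistic fit of normalized pSTAT5 signal, measured by MSD in lysates of TF1 cells. Cells were serum-starved, exposed to compound for 1 h (top concentration 10 μM, four-fold, 10 points), then given IL-3 at 30 ng/mL for 15 min.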

T2 sequence (O60674 849-1124 limits assumed): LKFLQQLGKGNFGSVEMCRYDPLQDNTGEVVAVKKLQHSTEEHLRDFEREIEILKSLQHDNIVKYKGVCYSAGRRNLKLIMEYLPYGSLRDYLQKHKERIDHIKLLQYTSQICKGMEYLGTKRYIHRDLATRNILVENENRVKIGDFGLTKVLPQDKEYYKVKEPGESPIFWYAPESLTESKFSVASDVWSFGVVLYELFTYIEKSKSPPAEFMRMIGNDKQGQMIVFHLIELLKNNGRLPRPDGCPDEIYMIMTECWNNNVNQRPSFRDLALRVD
JAK2 kinase activity on STAT5 in TF1 cells, sequence (O60674 whole entry): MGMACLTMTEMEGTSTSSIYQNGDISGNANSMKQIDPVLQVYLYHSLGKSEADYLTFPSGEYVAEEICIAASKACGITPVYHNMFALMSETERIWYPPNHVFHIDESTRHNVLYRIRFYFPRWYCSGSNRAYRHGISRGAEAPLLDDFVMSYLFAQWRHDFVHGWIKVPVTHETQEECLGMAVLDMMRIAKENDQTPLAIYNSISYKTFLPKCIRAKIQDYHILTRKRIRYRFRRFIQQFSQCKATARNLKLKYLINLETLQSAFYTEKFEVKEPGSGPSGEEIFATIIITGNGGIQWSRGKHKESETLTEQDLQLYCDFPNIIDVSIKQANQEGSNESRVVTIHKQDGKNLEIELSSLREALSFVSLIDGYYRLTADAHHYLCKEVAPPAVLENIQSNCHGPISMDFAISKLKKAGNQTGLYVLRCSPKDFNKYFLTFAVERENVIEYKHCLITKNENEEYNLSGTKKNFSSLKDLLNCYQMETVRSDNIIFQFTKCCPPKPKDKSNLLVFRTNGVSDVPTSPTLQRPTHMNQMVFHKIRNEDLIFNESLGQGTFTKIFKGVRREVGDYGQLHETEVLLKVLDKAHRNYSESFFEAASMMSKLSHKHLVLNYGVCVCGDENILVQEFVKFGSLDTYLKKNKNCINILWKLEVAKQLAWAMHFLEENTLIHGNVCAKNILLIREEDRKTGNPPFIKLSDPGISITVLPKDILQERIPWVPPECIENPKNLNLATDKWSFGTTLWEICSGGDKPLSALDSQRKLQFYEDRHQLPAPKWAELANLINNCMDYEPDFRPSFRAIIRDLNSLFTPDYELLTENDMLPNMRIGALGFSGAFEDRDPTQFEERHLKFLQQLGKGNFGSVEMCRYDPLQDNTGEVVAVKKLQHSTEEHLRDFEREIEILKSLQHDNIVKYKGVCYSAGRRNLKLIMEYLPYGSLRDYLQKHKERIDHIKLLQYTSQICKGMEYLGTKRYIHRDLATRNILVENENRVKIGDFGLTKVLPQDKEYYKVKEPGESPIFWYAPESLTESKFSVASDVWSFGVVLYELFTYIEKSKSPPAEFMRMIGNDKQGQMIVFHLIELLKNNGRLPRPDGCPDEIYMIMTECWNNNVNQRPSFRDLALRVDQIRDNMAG
JAK1 kinase activity on STAT3 in TF1 cells, sequence (P23458 whole entry): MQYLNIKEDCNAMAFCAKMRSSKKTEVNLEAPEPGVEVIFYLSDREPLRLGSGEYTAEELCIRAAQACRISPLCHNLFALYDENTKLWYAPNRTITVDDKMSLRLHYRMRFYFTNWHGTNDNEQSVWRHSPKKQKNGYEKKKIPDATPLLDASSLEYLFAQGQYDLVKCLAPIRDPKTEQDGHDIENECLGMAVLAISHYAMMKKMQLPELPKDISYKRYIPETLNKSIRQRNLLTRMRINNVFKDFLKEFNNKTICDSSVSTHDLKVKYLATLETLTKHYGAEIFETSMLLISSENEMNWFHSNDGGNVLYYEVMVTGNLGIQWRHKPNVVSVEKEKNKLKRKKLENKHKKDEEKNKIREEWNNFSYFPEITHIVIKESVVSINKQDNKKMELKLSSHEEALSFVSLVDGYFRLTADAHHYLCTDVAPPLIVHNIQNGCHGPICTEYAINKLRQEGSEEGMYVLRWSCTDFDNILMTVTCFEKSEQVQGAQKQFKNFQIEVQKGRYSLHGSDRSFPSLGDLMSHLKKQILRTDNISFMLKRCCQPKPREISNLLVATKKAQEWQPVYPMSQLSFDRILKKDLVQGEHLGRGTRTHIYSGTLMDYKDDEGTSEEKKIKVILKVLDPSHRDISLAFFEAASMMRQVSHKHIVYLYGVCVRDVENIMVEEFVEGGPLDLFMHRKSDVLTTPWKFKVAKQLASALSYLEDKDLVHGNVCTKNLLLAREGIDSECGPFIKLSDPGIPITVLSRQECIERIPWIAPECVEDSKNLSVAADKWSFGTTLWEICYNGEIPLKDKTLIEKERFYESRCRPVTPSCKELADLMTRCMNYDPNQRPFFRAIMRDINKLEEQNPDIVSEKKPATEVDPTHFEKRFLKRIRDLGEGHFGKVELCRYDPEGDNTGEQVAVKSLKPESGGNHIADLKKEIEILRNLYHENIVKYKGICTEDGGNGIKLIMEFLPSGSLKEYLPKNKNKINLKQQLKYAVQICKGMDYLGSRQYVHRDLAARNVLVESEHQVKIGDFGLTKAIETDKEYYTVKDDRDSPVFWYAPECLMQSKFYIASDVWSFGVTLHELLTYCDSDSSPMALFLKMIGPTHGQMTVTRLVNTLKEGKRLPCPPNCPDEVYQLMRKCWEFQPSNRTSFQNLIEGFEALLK
T3 sequence (P23458 875-1153 limits assumed): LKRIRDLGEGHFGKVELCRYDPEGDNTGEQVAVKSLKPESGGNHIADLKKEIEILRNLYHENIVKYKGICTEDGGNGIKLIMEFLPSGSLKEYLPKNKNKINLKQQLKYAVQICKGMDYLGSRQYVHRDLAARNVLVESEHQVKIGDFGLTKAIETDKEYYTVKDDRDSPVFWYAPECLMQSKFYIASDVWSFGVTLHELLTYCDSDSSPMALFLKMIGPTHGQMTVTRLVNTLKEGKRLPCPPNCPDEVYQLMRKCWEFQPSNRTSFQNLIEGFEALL
T1 sequence (P52333 822-1111 limits assumed): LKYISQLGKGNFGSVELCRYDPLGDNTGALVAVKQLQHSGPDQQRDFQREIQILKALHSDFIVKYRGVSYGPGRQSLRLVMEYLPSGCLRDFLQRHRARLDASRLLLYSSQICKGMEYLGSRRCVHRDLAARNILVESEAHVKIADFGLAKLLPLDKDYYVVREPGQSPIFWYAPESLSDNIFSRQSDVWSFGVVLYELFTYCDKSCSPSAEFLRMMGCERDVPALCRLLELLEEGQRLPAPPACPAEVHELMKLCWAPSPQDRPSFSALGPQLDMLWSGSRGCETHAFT
Tyk2 kinase activity on STAT4 in NK92 cells, sequence (P29597 whole entry): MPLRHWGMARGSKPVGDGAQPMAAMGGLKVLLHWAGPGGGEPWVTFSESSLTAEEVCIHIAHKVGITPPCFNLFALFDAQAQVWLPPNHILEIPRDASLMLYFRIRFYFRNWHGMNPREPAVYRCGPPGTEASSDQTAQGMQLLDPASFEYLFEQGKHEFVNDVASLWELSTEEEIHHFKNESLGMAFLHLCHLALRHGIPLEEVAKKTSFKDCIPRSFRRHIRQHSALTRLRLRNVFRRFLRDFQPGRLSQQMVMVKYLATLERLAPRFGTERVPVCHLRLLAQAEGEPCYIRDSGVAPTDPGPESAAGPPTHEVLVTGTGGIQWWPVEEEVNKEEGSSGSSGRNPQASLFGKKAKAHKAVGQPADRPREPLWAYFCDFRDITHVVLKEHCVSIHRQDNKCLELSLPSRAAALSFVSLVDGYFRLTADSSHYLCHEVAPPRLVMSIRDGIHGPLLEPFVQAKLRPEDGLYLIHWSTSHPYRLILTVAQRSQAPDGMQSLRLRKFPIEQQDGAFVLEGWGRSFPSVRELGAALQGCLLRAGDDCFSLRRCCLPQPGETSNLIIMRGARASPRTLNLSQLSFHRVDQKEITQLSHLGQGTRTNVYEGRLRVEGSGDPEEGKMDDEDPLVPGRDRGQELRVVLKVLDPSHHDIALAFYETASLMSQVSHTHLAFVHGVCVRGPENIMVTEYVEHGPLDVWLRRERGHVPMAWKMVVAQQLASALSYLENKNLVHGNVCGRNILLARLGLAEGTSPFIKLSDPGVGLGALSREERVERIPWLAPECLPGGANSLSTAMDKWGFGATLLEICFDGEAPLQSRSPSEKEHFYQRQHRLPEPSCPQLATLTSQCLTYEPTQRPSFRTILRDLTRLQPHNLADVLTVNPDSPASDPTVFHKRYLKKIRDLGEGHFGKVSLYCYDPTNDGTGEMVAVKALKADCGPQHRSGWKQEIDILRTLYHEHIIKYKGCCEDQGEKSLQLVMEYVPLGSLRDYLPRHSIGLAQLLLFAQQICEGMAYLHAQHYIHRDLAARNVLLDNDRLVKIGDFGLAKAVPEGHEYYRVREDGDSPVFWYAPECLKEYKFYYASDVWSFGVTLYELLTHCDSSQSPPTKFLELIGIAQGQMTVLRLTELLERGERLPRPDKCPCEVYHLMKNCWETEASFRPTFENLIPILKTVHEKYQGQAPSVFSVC

Row | Compound | IC50 [1] | IC50 [2] | IC50 [3] | IC50 [4] | IC50 [5] | IC50 [6] | IC50 [7]
1 | COc1cccc(-c2cn3nccc3c(N3C[C@@H](C)[C@@](C#N)(C4CC4)C3=O)n2)n1 [Example 193, (3R,4S)-3-cyclopropyl-1-(6-(6-methoxypyridin-2-yl)pyrazolo[1,5-a]pyrazin-4-yl)-4-methyl-2-oxopyrrolidine-3-carbonitrile] | > 100 nM | > 10000 nM | > 10000 nM | 100 to 1000 nM | > 10000 nM | 5 to 20 nM | > 10000 nM
2 | C[C@@H]1CN(c2nc(-c3cccnc3)cn3nccc23)C(=O)[C@]1(C#N)C1CC1 [Example 194, (3R,4S)-3-cyclopropyl-4-methyl-2-oxo-1-(6-(pyridin-3-yl)pyrazolo[1,5-a]pyrazin-4-yl)pyrrolidine-3-carbonitrile] | > 100 nM | < 100 nM | 100 to 1000 nM | < 100 nM | 1000 to 5000 nM | < 5 nM | 1000 to 5000 nM
3 | C[C@@H]1CN(c2nc(-c3ccc(C#N)nc3)cn3nccc23)C(=O)[C@]1(C#N)C1CC1 [Example 195, 5-(4-((3R,4S)-3-cyano-3-cyclopropyl-4-methyl-2-oxopyrrolidin-1-yl)pyrazolo[1,5-a]pyrazin-6-yl)picolinonitrile] | > 100 nM | < 100 nM | 100 to 1000 nM | < 100 nM | 1000 to 5000 nM | 5 to 20 nM | > 10000 nM
4 | C[C@@H]1CN(c2nc(-c3ccnc(C#N)c3)cn3nccc23)C(=O)[C@]1(C#N)C1CC1 [Example 197, 4-(4-((3R,4S)-3-cyano-3-cyclopropyl-4-methyl-2-oxopyrrolidin-1-yl)pyrazolo[1,5-a]pyrazin-6-yl)picolinonitrile] | > 100 nM | < 100 nM | 100 to 1000 nM | < 100 nM | 1000 to 5000 nM | 5 to 20 nM | > 10000 nM
5 | Cc1c(-c2cn3nccc3c(N3C[C@@H](C)[C@@](C#N)(C4CC4)C3=O)n2)cnn1C [Example 199, (3R,4S)-3-cyclopropyl-1-(6-(1,5-dimethyl-1H-pyrazol-4-yl)pyrazolo[1,5-a]pyrazin-4-yl)-4-methyl-2-oxopyrrolidine-3-carbonitrile] | > 100 nM | 100 to 1000 nM | 100 to 1000 nM | < 100 nM | 1000 to 5000 nM | 5 to 20 nM | 5000 to 10000 nM

The next lines start with the values.

Row | IC50 [1] | IC50 [2] | IC50 [3] | IC50 [4] | IC50 [5] | IC50 [6] | IC50 [7] | Compound
6 | 50 to 100 nM | < 100 nM | < 100 nM | < 100 nM | 100 to 1000 nM | < 5 nM | 100 to 1000 nM | C[C@@H]1CN(c2nc(-c3cnn(C4CC4(F)F)c3)cn3nccc23)C(=O)[C@]1(C#N)C1CC1 (stereo partly drawn) [Example 198, (3R,4S)-3-cyclopropyl-1-(6-(1-(2,2-difluorocyclopropyl)-1H-pyrazol-4-yl)pyrazolo[1,5-a]pyrazin-4-yl)-4-methyl-2-oxopyrrolidine-3-carbonitrile]
7 | 20 to 50 nM | < 100 nM | < 100 nM | < 100 nM | 100 to 1000 nM | < 5 nM | 100 to 1000 nM | [2H]C([2H])([2H])n1cc(-c2cn3nccc3c(N3C[C@@H](C)[C@@](C#N)(C4CC4)C3=O)n2)cn1 [Example 201, (3R,4S)-3-cyclopropyl-4-methyl-1-(6-(1-(methyl-d3)-1H-pyrazol-4-yl)pyrazolo[1,5-a]pyrazin-4-yl)-2-oxopyrrolidine-3-carbonitrile]
8 | 50 to 100 nM | < 100 nM | < 100 nM | < 100 nM | 100 to 1000 nM | < 5 nM | 100 to 1000 nM | CCn1cc(-c2cn3nccc3c(N3C[C@@H](C)[C@@](C#N)(C4CC4)C3=O)n2)cn1 [Example 202, (3R,4S)-3-cyclopropyl-1-(6-(1-ethyl-1H-pyrazol-4-yl)pyrazolo[1,5-a]pyrazin-4-yl)-4-methyl-2-oxopyrrolidine-3-carbonitrile]
